Common to all, as to format: in vivo
Experiment [1] concerns Mycosphaerella graminicola; Anamorph: Septoria tritici. The experiment can be described thus: Leaf Blotch of Wheat (SEPTTR) disease control. The note with it: Zymoseptoria tritici; for pest or weed control at 100 ppm: rate 100 ppm. In outline: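 Wheat seedlings (Yuma, first leaf emerged) sprayed to run-off with compound in acetone/water with 110 ppm Triton X-100, or track-sprayed as EC with 0.1% Trycol 5941. Septoria tritici spores inoculated before or after treatment. Dew chambers, then 20 °C greenhouse. Percent disease control derived from severity (0–100%) relative to untreated plants.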

For experiment [2], the system named is Puccinia triticina; Synonym: Puccinia recondite f. Sp. Tritici. Description: Wheat Brown Rust (PUCCRT) disease control. The note with it: Puccinia triticina, topical; for pest or weed control at 100 ppm: rate 100 ppm. In outline:
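Brown rust on first-leaf Yuma wheat: spore inoculation before or after spray application (acetone/Triton X-100 solution, or EC with Trycol in track spray), overnight 100% RH at 22 °C, disease developed at 24 °C. Severity scored 0–100% and converted to percent control against untreated.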

A further experiment has as its system Alternaria solani. Description: Tomato Early Blight (ALTESO) disease control. The note with it: Alternaria solani, topical, 24 h, 1 Day Protectant, read-out: Disease Control ALTESO 1 DP. The method, then:
Technical grades of materials were dissolved in acetone, which were then mixed with nine volumes of water containing 110 ppm Triton X-100. The fungicide solutions were applied onto wheat seedlings using an automated booth sprayer to run-off. All sprayed plants were allowed to air dry prior to further handling. All fungicides were evaluated using the aforementioned method for their activity vs. all target diseases. Wheat leaf blotch and brown rust activity were also evaluated using track spray applications, in which case the fungicides were formulated as EC formulations, containing 0.1% Trycol 5941 in the spray solutions. Wheat plants (variety Yuma) were grown from seed in a greenhouse in 50% mineral soil/50% soil-less Metro mix until the first leaf was fully emerged, with 7-10 seedlings per pot. These plants were inoculated with an aqueous spore suspension of Septoria tritici either prior to or after fungicide treatments. After inoculation the plants were kept in 100% relative humidity (one day in a dark dew chamber followed by two to three days in a lighted dew chamber at 20° C.) to permit spores to germinate and infect the leaf. The plants were then transferred to a greenhouse set at 20° C. for disease to develop. When disease symptoms were fully expressed on the 1st leaves of untreated plants, infection levels were assessed on a scale of 0 to 100 percent disease severity. Percent disease control was calculated using the ratio of disease severity on treated plants relative to untreated plants. Tomato plants (variety Outdoor girl) were propagated in soil-less Metro mix, with each pot having one plant, and used when 12 to 14 days old. Test plants were inoculated with an aqueous spore suspension of Alternaria solani 24 hr after fungicide treatments. After inoculation the plants were kept in 100% relative humidity (one day in a dark dew chamber followed by two to three days in a lighted dew chamber at 20° C.) to permit spores to germinate and infect the leaf. The plants were then transferred to a growth room at 22° C. for disease to develop. Fungicide formulation, application and disease assessment on the sprayed leaves followed the procedures as described in the Example A.

[3] abbreviates: 24 h, 1 Day Protectant, rate 121.5 g/H, read-out: SEPTTR 1 DP disease control.
The mark [4] stands for this setting: 72 h, 3 Day Curative, rate 121.5 g/H, read-out: SEPTTR 3 DC disease control.
[5] abbreviates: 24 h, 1 Day Protectant, rate 121.5 g/H, read-out: PUCCRT 1 DP disease control.
The mark [6] stands for this setting: 72 h, 3 Day Curative, rate 121.5 g/H, read-out: PUCCRT 3 DC disease control.
The mark [7] stands for this setting: 24 h, 1 Day Protectant, read-out: SEPTTR 1 DP disease control.
Setting [8] is: 72 h, 3 Day Curative, read-out: SEPTTR 3 DC disease control.
Where [9] appears, read: 24 h, 1 Day Protectant, read-out: PUCCRT 1 DP disease control.
[10] abbreviates: 72 h, 3 Day Curative, read-out: PUCCRT 3 DC disease control.

Read-outs that look alike come from different tables or passages of the source.

As to `C=C[C@H]1CCC[C@H](NC(=O)c2nccc(OC)c2OC(C)=O)C(=O)O[C@@H](C)[C@@H]1Oc1ccccc1` [Compound F86], the pest or weed control at 121.5 g/ha in experiment [1] (setting [3]), in experiment [1] (setting [4]), in experiment [2] (setting [5]) and in experiment [2] (setting [6]) was 80 to 100% each time. Further, the pest or weed control at 100 ppm with Alternaria solani was 0 to 80%.
For `COc1ccnc(C(=O)N[C@H]2CCC[C@H](CCBr)[C@@H](Oc3ccccc3)[C@H](C)OC2=O)c1OC(C)=O` [Compound F80], the pest or weed control at 100 ppm in experiment [1] (setting [7]) lay in the range of 80 to 100%; in experiment [1] (setting [8]), 80 to 100%; in experiment [2] (setting [9]) it was 80 to 100%; in experiment [2] (setting [10]), 80 to 100%; with Alternaria solani it was 0 to 80%. The pest or weed control at 121.5 g/ha in experiment [1] (setting [3]), in experiment [1] (setting [4]), in experiment [2] (setting [5]) and in experiment [2] (setting [6]) was 80 to 100% throughout.
With `COc1ccnc(C(=O)N[C@H]2CCC[C@H](Cc3ccccc3)[C@@H](Oc3ccccc3)[C@H](C)OC2=O)c1OCOC(C)=O` [Compound F108], the pest or weed control at 100 ppm in experiment [1] (setting [7]), in experiment [1] (setting [8]), in experiment [2] (setting [9]) and in experiment [2] (setting [10]) was 80 to 100% in each case. Also, the pest or weed control at 121.5 g/ha fell in the range of 80 to 100% in experiment [1] (setting [3]), 80 to 100% in experiment [1] (setting [4]), 80 to 100% in experiment [2] (setting [5]) and 0 to 80% in experiment [2] (setting [6]).
Regarding `COc1ccc(C[C@H]2CCC[C@H](NC(=O)c3nccc(OC)c3OCOC(C)=O)C(=O)O[C@@H](C)[C@@H]2Oc2ccccc2)cc1` [Compound F114], the pest or weed control at 100 ppm in experiment [1] (setting [7]), in experiment [1] (setting [8]), in experiment [2] (setting [9]) and in experiment [2] (setting [10]) was 80 to 100% each time. The pest or weed control at 121.5 g/ha in experiment [1] (setting [3]) is 80 to 100%; in experiment [1] (setting [4]), 80 to 100%; in experiment [2] (setting [5]), 80 to 100%; in experiment [2] (setting [6]) it was 0 to 80%.
Regarding `C=C[C@H]1CCC[C@H](NC(=O)c2nccc(OC)c2OCOC(C)=O)C(=O)O[C@@H](C)[C@@H]1Oc1ccccc1` [Compound F146], the pest or weed control at 121.5 g/ha in experiment [1] (setting [3]), in experiment [1] (setting [4]), in experiment [2] (setting [5]) and in experiment [2] (setting [6]) was 80 to 100% in each case. In addition, the pest or weed control at 100 ppm in the experiment on Alternaria solani lay in the range of 80 to 100%.
Consider `COc1ccnc(C(=O)N[C@H]2CCC[C@H](CC(F)F)[C@@H](Oc3ccccc3)[C@H](C)OC2=O)c1OC(C)=O` [Compound F82], for which the pest or weed control at 100 ppm in experiment [1] (setting [7]), in experiment [1] (setting [8]), in experiment [2] (setting [9]) and in experiment [2] (setting [10]) was 80 to 100% throughout. The pest or weed control at 121.5 g/ha in experiment [1] (setting [3]), in experiment [1] (setting [4]), in experiment [2] (setting [5]) and in experiment [2] (setting [6]) was 80 to 100% throughout.
In the case of `COc1ccnc(C(=O)N[C@H]2CCC[C@H](Cc3ccc(F)cc3F)[C@@H](OC(=O)c3ccco3)[C@H](C)OC2=O)c1OCOC(=O)C(C)C` [Compound F157], the pest or weed control at 121.5 g/ha lay within 80 to 100% in experiment [1] (setting [3]), 80 to 100% in experiment [2] (setting [5]) and 0 to 80% in experiment [2] (setting [6]). In addition, the pest or weed control at 100 ppm in the experiment on Alternaria solani was in the range of 80 to 100%.
Turning to `COc1ccnc(C(=O)N[C@H]2CCC[C@H](Cc3ccc(F)cc3)[C@@H](OCC(C)C)[C@H](C)OC2=O)c1OCOC(C)=O` [Compound F102], the pest or weed control at 100 ppm in experiment [1] (setting [7]), in experiment [1] (setting [8]), in experiment [2] (setting [9]) and in experiment [2] (setting [10]) was 80 to 100% in each case. Also, the pest or weed control at 121.5 g/ha in experiment [1] (setting [3]) lay within 80 to 100%; in experiment [1] (setting [4]) it was 80 to 100%; in experiment [2] (setting [5]), 80 to 100%; in experiment [2] (setting [6]) it was 0 to 80%.
Consider `COc1ccnc(C(=O)N[C@H]2CCC[C@H](Cc3ccccc3)[C@@H](OC3CCCC3)[C@H](C)OC2=O)c1OCOC(C)=O` [Compound F110], for which the pest or weed control at 100 ppm in experiment [1] (setting [7]), in experiment [1] (setting [8]), in experiment [2] (setting [9]) and in experiment [2] (setting [10]) was 80 to 100% each time. Also, the pest or weed control at 121.5 g/ha in experiment [1] (setting [3]), in experiment [1] (setting [4]), in experiment [2] (setting [5]) and in experiment [2] (setting [6]) was 80 to 100% throughout.
Consider `COc1ccnc(C(=O)N[C@H]2CCC[C@H](CC(F)F)[C@@H](Oc3ccccc3)[C@H](C)OC2=O)c1OCOC(C)=O` [Compound F138], for which the pest or weed control at 100 ppm in experiment [1] (setting [7]), in experiment [1] (setting [8]), in experiment [2] (setting [9]) and in experiment [2] (setting [10]) was 80 to 100% each time. In addition, the pest or weed control at 121.5 g/ha in experiment [1] (setting [3]), in experiment [1] (setting [4]), in experiment [2] (setting [5]) and in experiment [2] (setting [6]) was 80 to 100% throughout.
Regarding `CCOCC(=O)OCOc1c(OC)ccnc1C(=O)N[C@H]1CCC[C@H](Cc2ccc(F)cc2)[C@@H](OCC(C)C)[C@H](C)OC1=O` [Compound F168], the pest or weed control at 100 ppm in experiment [1] (setting [7]), in experiment [1] (setting [8]), in experiment [2] (setting [9]) and in experiment [2] (setting [10]) was 80 to 100% each time. In addition, the pest or weed control at 121.5 g/ha in experiment [1] (setting [3]), in experiment [1] (setting [4]), in experiment [2] (setting [5]) and in experiment [2] (setting [6]) was 80 to 100% in each case.
With `CCOCC(=O)OCOc1c(OC)ccnc1C(=O)N[C@H]1CCC[C@H](Cc2ccc(F)cc2F)[C@@H](OC(=O)c2ccco2)[C@H](C)OC1=O` [Compound F193], the pest or weed control at 121.5 g/ha in experiment [1] (24 h, Wheat Leaf Blotch, 1 Day Protectant, rate 121.5 g/H (low volume application), read-out: Disease control SEPTTR 1 DP) is 80 to 100%; in experiment [1] (72 h, Wheat Leaf Blotch, 3 Day Curative, rate 121.5 g/H (low volume application), read-out: Disease control SEPTTR 3 DC) it was 0 to 80%; in experiment [2] (24 h, Wheat Brown Rust, 1 Day Protectant, rate 121.5 g/H (low volume application), read-out: Disease control PUCCRT 1 DP), 80 to 100%. In addition, the pest or weed control at 100 ppm in the experiment on Alternaria solani fell in the range of 80 to 100%.
